Experimental findings from patent US20150328157A1, “APPLICATION OF SILICON DIOXIDE AEROGEL AS NANO-DRUG CARRYING SYSTEM IN PHARMACY” (GRADUATE SCHOOL AT SHENZHEN, TSINGHUA UNIVERSITY, priority 2012, published 2015) are described below.

A short description of this data set: Bioavailability of nanosized paclitaxel oral dosage form in rat bodies (plasma paclitaxel by HPLC). Format: in vivo, SD rats. The note with it: male, SD, one-time intragastric administration 40 mg/kg.

Structures are written as SMILES.

Procedure: Chromatographic conditions: Elite SinoChrom 300A ODS-AP 5 nm 4.6×250 mm Mobile phase: methanol:water:acetonitrile=23:41:36; flow rate: 1.0 ml/min; detection wavelength: 227 nm; and sample size: 20 μl.
Preparation of an internal standard solution: weighing about 10 mg of a diazepam control product, precisely weighing, putting into a 100 ml measuring flask, dissolving with methanol, diluting to the scale and shaking up to obtain an internal standard stock solution with the concentration of 100 μg/ml. An appropriate amount of the stock solution was precisely weighed, diluted with methanol to prepare 10 μg/ml of internal standard control product solution and preserved in the refrigerator at 4° C. for later use.
100 ul of plasma sample was taken and put into an EP tube, 5 μl (10 μg/ml) and 40 μl of NaHCO3(1 mol/L) was added, whirling was performed for 1 min, 1 ml of an extraction solvent, namely ethyl ether, was added, whirling was performed for 2 min, centrifugation was performed at 3500 r/min for 10 min, supernatant fluid was taken and blow-dried under air flow of 40° C., the residue was dissolved in 40 μl of mobile phase, whirling was performed for 1 min, centrifugation was performed at 3500 r/min for 10 min, and then 20 μl of supernatant fluid was taken for sample injection and analysis. […]

Compound `CC(=O)O[C@H]1C(=O)[C@@]2(C)[C@H]([C@H](OC(=O)c3ccccc3)[C@]3(O)C[C@H](OC(=O)[C@H](O)[C@@H](NC(=O)c4ccccc4)c4ccccc4)C(C)=C1C3(C)C)[C@]1(OC(C)=O)CO[C@@H]1C[C@@H]2O` [paclitaxel] registered an exposure (AUC) of 4890 ng·h/mL.
